{
  "source": "patent US7189859B2",
  "about": "“Radiolabelled phenylethyl imidazole carboxylic acid ester derivatives” (priority 2003, dated 2007)",
  "key": {"[1]": {"molecular_target": "T1, cytochrome P-45011β enzyme system (Rattus norvegicus, UniProt P15393)", "T1 construct": "Whole adrenals from adult male Wistar rats were homogenized; from tissue; host or cells: whole adrenals of adult male Wistar rats, washed membrane pellet", "T1 sequence (P15393 25-499)": "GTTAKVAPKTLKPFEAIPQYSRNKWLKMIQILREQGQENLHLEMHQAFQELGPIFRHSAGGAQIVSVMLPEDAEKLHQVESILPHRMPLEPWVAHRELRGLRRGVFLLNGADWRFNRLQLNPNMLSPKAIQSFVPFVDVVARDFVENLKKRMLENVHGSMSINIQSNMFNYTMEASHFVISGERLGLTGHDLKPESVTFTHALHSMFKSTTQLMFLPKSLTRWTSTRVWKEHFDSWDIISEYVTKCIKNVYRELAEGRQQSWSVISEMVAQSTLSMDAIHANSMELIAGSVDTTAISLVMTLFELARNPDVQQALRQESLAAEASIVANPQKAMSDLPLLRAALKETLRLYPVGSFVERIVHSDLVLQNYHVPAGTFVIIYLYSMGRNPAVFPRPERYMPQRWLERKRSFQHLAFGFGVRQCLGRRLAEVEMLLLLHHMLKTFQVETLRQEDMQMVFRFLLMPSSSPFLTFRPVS", "assay": "Displacement of [^131I]MTO binding", "procedure": "Test compounds were incubated at 0.01–100 nM concentrations. Non-specific binding was determined with etomidate (10 μM). […] The filters containing membranes with bound radioligand were measured in a gamma-spectrometer.\nIC50 values (the molar concentration of compound necessary to inhibit binding by 50%) were determined for each test compound by non-linear, least squares regression analysis, using an iterative curve fitting routine."}, "[2]": {"test_system": "steroid 11β-hydroxylation", "conditions": "human adrenocortical tissue slices; cited from earlier work"}, "[3]": {"molecular_target": "T2, rat adrenal membranes (cytochrome P-450 β-hydroxylase) (Rattus norvegicus, UniProt P15393)", "T2 sequence (P15393 25-499)": "T1 sequence (P15393 25-499)", "assay": "[^131I]MTO binding to rat adrenal membranes (association, dissociation, saturation)", "conditions": "for observable association rate constant v: data pooled from 7 experiments", "procedure": "Whole adrenals from adult male Wistar rats were homogenized in 10 mM K2HPO4/10 mM HEPES (pH 7.1) with a glass/teflon piston (Potter-type). The homogenate was centrifuged at 35.000×g for 10 min, the pellet was resuspended in fresh buffer and centrifuged again. Membranes were washed 2 more times and stored as aliquots at −80° C.\nAfter incubation, membranes with bound radioligand were isolated by filtration through Whatman GF/B glass fiber filters (presoaked in buffer), followed by 2×4 mL washings with buffer, then filters were measured in a gamma-spectrometer.\nFor dissociation experiments, membranes were fully equilibrated with 2 nM radioligand, and the dissociation was initiated by the addition of excess unlabelled 4-iodo-MTO and stepwise filtration at 15 sec intervals.\nFor saturation studies 2–100 nM 4-iodo-MTO carrier was used. See summary in FIG. 1. […] Incubation for 30 minutes using 10 mM K2HPO4/10 mM HEPES, 150 mM NaCl (pH 7.1)."}, "[4]": {"test_system": "lesions of adrenocortical origin", "conditions": "clinical; cited from earlier work"}, "adrenals": {"test_system": "adrenals", "assay": "In vivo evaluation of ^131I-MTO (organ distribution after tail vein injection)", "conditions": "rats", "procedure": "Method: ^131I-MTO was used with a radiochemical purity >99% and a specific activity of 57 GBq/μmol. The radiotracer (0.5–1.1 MBq; […]) was injected into the tail vein of rats (female, 180–220 gram). Groups of four rats were sacrifized at specified times up to 24 hours post injection. The organs were excised and weighed, the radioactivity was measured at constant geometry using a gamma-spectrometer with a Nal(TI)-crystal. The data were expressed as percent of injected dose (ID) per organ and as percent of ID per gram tissue."}, "[5]": {"conditions": "read-out: IC50 (inhibition of [^131I]MTO binding), rat adrenal membranes"}},
  "note": "Like-named read-outs stand apart in the source and are kept apart here.",
  "data": [
    {"smiles": "COC(=O)c1cncn1C(C)c1ccccc1", "note": "(stereo not drawn) [metomidate]", "values": [
      {"measurement": "IC50", "setting": "[1]", "result": 3.7, "unit": "nM"},
      {"measurement": "inhibition of steroid 11β-hydroxylation", "setting": "[2]", "result": "equally potent inhibitor"}
    ]},
    {"smiles": "COC(=O)c1cncn1[C@H](C)c1ccc(I)cc1", "note": "[[^131I]MTO, (R)-3-[1-(4-[^131I]iodophenyl)ethyl]-3H-imidazole-4-carboxylic acid methyl ester]", "values": [
      {"measurement": "Kd", "setting": "[3]; saturation analysis, 2–100 nM 4-iodo-MTO carrier, 30 minutes incubation, pH 7.1, (15)", "result": "7.4 ± 2.8", "unit": "nM"}
    ]},
    {"smiles": "COC(=O)c1cncn1[C@H](C)c1ccc(I)cc1", "note": "[Example 4-iodo-MTO, (R)-methyl 3-[1-(4-iodophenyl)ethyl]-3H-imidazole-4-carboxylate]", "values": [
      {"measurement": "IC50", "setting": "[1]", "result": 9, "unit": "nM"}
    ]},
    {"smiles": "C[C@H](c1ccccc1)n1cncc1C(=O)OCCF", "note": "[FETO]", "values": [
      {"measurement": "IC50", "setting": "[1]; [5]", "result": 3, "unit": "nM"}
    ]},
    {"smiles": "CC(C)(C(=O)c1cccnc1)c1cccnc1", "note": "[Metyrapone]", "values": [
      {"measurement": "IC50", "setting": "[1]", "result": 1200, "unit": "nM"}
    ]},
    {"smiles": "CCOC(=O)c1cncn1[C@H](C)c1ccccc1", "note": "[etomidate]", "values": [
      {"measurement": "IC50", "setting": "[1]", "result": 1.1, "unit": "nM"},
      {"measurement": "inhibition of steroid 11β-hydroxylation", "setting": "[2]", "result": "block the conversion of 11-deoxycortisol to cortisol and of 11-deoxycorticosterone (DOC) to corticosterone and aldosterone"}
    ]},
    {"smiles": "COC(=O)c1cncn1C(C)c1ccccc1", "note": "(stereo not drawn) [[O-methyl-^11C]metomidate]", "values": [
      {"measurement": "uptake in lesions of adrenocortical origin, including adenomas", "setting": "[4]", "result": "high uptake"},
      {"measurement": "uptake in lesions of non-adrenocortical origin", "setting": "[4]", "result": "very low uptake"}
    ]},
    {"smiles": "COC(=O)c1cncn1[C@H](C)c1ccc([131I])cc1", "note": "[[^131I]MTO, (R)-3-[1-(4-[^131I]iodophenyl)ethyl]-3H-imidazole-4-carboxylic acid methyl ester]", "values": [
      {"measurement": "observable association rate constant v", "setting": "[3]; ligand concentration 2 nM 4-iodo-MTO", "result": 0.65, "unit": "min⁻¹"},
      {"measurement": "observable association rate constant v", "setting": "[3]; ligand concentration 4 nM 4-iodo-MTO", "result": 1.23, "unit": "min⁻¹"},
      {"measurement": "observable association rate constant v", "setting": "[3]; ligand concentration 11 nM 4-iodo-MTO", "result": 1.34, "unit": "min⁻¹"},
      {"measurement": "duration of radioactivity plateau in the adrenals", "setting": "adrenals; intravenous (tail vein)", "result": 2, "unit": "h"},
      {"measurement": "route of elimination", "setting": "adrenals; intravenous (tail vein)", "result": "eliminated both by hepatobiliary and by renal excretion"},
      {"measurement": "specific uptake in the adrenals", "setting": "adrenals; intravenous (tail vein)", "result": "approximately 10 % ID/g tissue"},
      {"measurement": "time post injection up to which renal activity is increasing", "setting": "adrenals; renal activity attributed to ^131I-ETO-acid", "result": "up to 4 hours"}
    ]},
    {"smiles": "CC(c1ccccc1)n1cncc1C(=O)O", "note": "(stereo not drawn) [ETO-acid]", "values": [
      {"measurement": "IC50", "setting": "[1]; [5]", "result": 123000, "unit": "nM"}
    ]}
  ]
}
